Measurements published in patent publication US20120283175A1, “ANTIBACTERIAL COMPOSITIONS” (Achaogen, Inc., priority 2009, published 2012).
≈ marks a conversion by molar mass, not a printed value. Where “and” joins values, the source holds several entries; their conditions need not be identical. Equal values may be shown once. Entries after “also recorded” stand apart in the source; their conditions may differ. Read-outs that look alike come from different tables or passages of the source.

Legend:
[1] = system: P. aeruginosa (ATCC27853); assay: MIC on P. aeruginosa ATCC27853; type: cell-based; details: Pseudomonas aeruginosa, ATCC 27853 / ATCC 278534; on ATCC278534 as printed
Experimental: (§1) Bacterial isolates were cultivated from −70° C. frozen stocks of the indicated strains by overnight passages at 35° C. in ambient air on Mueller-Hinton agar (Beckton Dickinson, Franklin Lakes, N.J.). Minimum Inhibitory Concentrations (MICs) were determined by the broth microdilution method in accordance with the Clinical and Laboratory Standards Institute (CLSI) guidelines. In brief, organism suspensions were adjusted to a 0.5 McFarland standard to yield a final inoculum between 3×10^5 and 7×10^5 colony-forming units (CFU)/mL. Drug dilutions and inocula were made in sterile, cation adjusted Mueller-Hinton Broth (Beckton Dickinson). An inoculum volume of 100 μL was added to wells containing 100 μL of broth with 2-fold serial dilutions of drug. All inoculated microdilution trays were incubated in ambient air at 35° C. for 18-24 hours. Following incubation, the lowest concentration of the drug that prevented visible growth (OD600 nm <0.05) was recorded as the MIC.
This table focuses on the sensitive part of the LpxCi-4 dose response curve (30 mg/kg) by examining the mean log CFU at 0 or 24 hours, as well as the log change in CFU at 24 hours relative to zero hours (“ΔLogCFU vs 24 hr”). Data is given for animals treated with vehicle, LpxCi-4 at 30 mg/kg, a second agent alone at the indicated doses or the combination of LpxCi-4 at 30 mg/kg plus the second agent at the indicated dose. […]

[2] = system: P. aeruginosa (ATCC27853); details: for ΔLogCFU vs 24 hr / Log CFU Mean: 24 hr; for Log CFU Mean: n=5; for in vivo synergy with erythromycin: erythromycin 60 mg/kg
Excerpt: (§2) The model was run essentially as described by Craig and others (see Gudmundsson et al., “Murine Thigh Infection Model,” Handbook of Animal Models of Infection, M. A. Sande and O. Zak, Eds.; London: Academic Press, 1999, pp 137-144). Briefly, mice were rendered neutropenic prior to infection with 2 doses of cyclophosphamide, and then infected intramuscularly in the thigh with inocula of 10^3-10^5 CFU of either K. pneumo. (ATCC43816) or P. aeruginosa (ATCC27853). Antibiotics or vehicle alone as a negative control were administered twice at 2 hrs and 14 hrs post-infection. The animals were kept neutropenic for the duration of the experiment in order to minimize the effect of white blood cells on the infection such that the microbiological readout measures the in vivo interaction of drugs and bacteria. At 24 hrs post-infection, thighs were harvested, homogenized, and plated to measure the number of CFUs surviving per thigh. Thighs from a subset of animals were also harvested 2 hrs post-infection to record the CFUs present just prior to the first antibiotic treatment (pre-treatment).
This table focuses on the sensitive part of the LpxCi-4 dose response curve (30 mg/kg) by examining the mean log CFU at 0 or 24 hours, as well as the log change in CFU at 24 hours relative to zero hours (“ΔLogCFU vs […]”). Data is given for animals treated with vehicle, LpxCi-4 at 30 mg/kg, a second agent alone at the indicated doses or the combination of LpxCi-4 at 30 mg/kg plus the second agent at the indicated dose. The standard errors for each measurement are also given (n=5 animals/group). By comparing the observed drop in CFU of the combination with the sum of the drop in CFU associated with each of the two agents given separately, one can determine whether the combination is, in fact, synergistic in vivo.

gram negative bacteria = assay: Checkerboard synergy score at fractions of the antibacterial agent's MIC, with LpxCi-1, -2, -3; type: cell-based; design: scale not given here
Experimental: (§3) Partial or full inhibition of LpxC should compromise the outer membrane and thus allow these synergizing agents to enter the cells and exert an antibacterial effect at concentrations where cells untreated with an LpxC inhibitor are unaffected. As a first step, checkerboard synergy assays for a variety of antibacterial agents were perform with several LpxC inhibitors, on several species of gram negative bacteria.
as §1

Pseudomonas aeruginosa = assay: Checkerboard synergy assay with LpxCi-4; type: cell-based; details: combination with LpxCi-4 (3936); Pseudomonas aeruginosa (ATCC27853 in text)
Excerpt: (§4) One classic method for assessing synergy, referred to as the checkerboard assay, is used to predict the efficacy of antibacterial agents, and is described by Scribner et. al., (Antimicrobial Agents and Chemotherapy 21(6):939-943 (1982)) and in Goodman & Gilman (The Pharmacological Basis of Therapeutics, Sixth Edition, pp. 1097-1098 (1980)). The checkerboard assay involves serial two-fold dilutions of the antibiotics individually and in combination in broth, which is then inoculated with the microorganism to be tested. After incubation, the minimum inhibitory concentration (MIC) of each drug used individually and in combination is determined (N.B., the MIC is the lowest concentration of the drug that inhibits growth in the medium). Synergism is indicated by a decrease in the MIC of each drug when used in combination. Antagonism is indicated by an increase in the MIC of either or both drugs when used in combination. Alternate methods of assessing synergy are reviewed in Greco, et al., Pharmacological Reviews 47(2):[…] (1995), incorporated herein by reference in its entirety.
as §3, §1
(§5) Standard checkerboard assays were performed with a combination of the indicated agents and LpxCi-4. Table 2 provides the FICI calculated according to standard techniques.

Yersinia enterocolitica = assay: Checkerboard synergy assay with LpxCi-4; type: cell-based; details: combination with LpxCi-4
Excerpt: as §4, §3, §1, §5

Klebsiella pneumoniae = assay: Checkerboard synergy assay with LpxCi-4; type: cell-based; details: combination with LpxCi-4
Excerpt: as §4, §3, §1, §5

K. pneumo. (ATCC43816) = assay: Neutropenic thigh in vivo efficacy model (mice); design: species or system Klebsiella pneumoniae; Static Dose, LpxC cmpd / Static Dose, LpxC in combination: unit not given here
Excerpt: as §2

envA+ (D21) E. coli = assay: MIC by broth microdilution, isogenic envA+ strain; type: cell-based
Experimental: as §1

envA1 (D22) E. coli = assay: MIC by broth microdilution, isogenic envA1 mutant strain; type: cell-based; details: for MIC: Strain envA1 (D21); for Fold decrease in MIC (envA+/envA1): envA+ vs envA1 E. coli
Experimental: as §1

E. coli ATCC25922 = assay: MIC by broth microdilution, wild type strain ATCC25922; type: cell-based
Experimental: as §1

[3] = Pharmacokinetic studies of LpxCi-4 alone or in the presence of vancomycin; type: in vivo; details: for AUC / Cmax / Tmax / half-life: in vivo, 10 mg/kg
Experimental: This would result in a lower static dose for the LpxC inhibitor and apparent synergy. In order to address this, pharmacokinetic studies of LpxCi-4 either alone or in the presence of vancomycin at 220 mg/kg were performed. […] The half-life (HL_Lambda_z), time to maximum concentration (Tmax), maximal concentration (Cmax), and area under the concentration-time curve (AUC) for LpxCi-4 are provided.

Escherichia coli = assay: Checkerboard synergy assay with LpxCi-4; type: cell-based; details: combination with LpxCi-4
Excerpt: as §4, §3, §1, §5

[4] = strain 43816, combination agent Rifampin
[5] = first block of Table 5, mg/kg/day b.i.d.: 3936 30, Rif. 30, Azith. 50
[6] = second block of Table 5, mg/kg/day b.i.d.: 3936 30, Eryth. 60, Dapto. 3, Oxacil. 100
[7] = strain 27853, combination agent Rifampin
[8] = strain 27853, combination agent Vanco
[9] = LpxCi-4 (10 mg/kg) + vancomycin (220 mg/kg)

CC[C@H]1OC(=O)[C@H](C)[C@@H](O[C@H]2C[C@@](C)(OC)[C@@H](O)[C@H](C)O2)[C@H](C)[C@@H](O[C@@H]2O[C@H](C)C[C@H](N(C)C)[C@H]2O)[C@](C)(O)C[C@@H](C)CN(C)[C@H](C)[C@@H](O)[C@]1(C)O [Azithromycin, azithromycin]
MIC [1]: > 16 µg/mL
in vivo synergy with LpxC inhibitors ([2]; P. aeruginosa (ATCC27853), summary): modest but potentially useful in vivo synergy
Synergy Score (gram negative bacteria; with LpxCi-1, antibacterial agent at 1/16 MIC): 0.10
Synergy Score (gram negative bacteria; with LpxCi-1, antibacterial agent at 1/64 MIC): 0.13
Synergy Score (gram negative bacteria; with LpxCi-1, antibacterial agent at ¼ MIC): 0.26
Synergy Score (gram negative bacteria; with LpxCi-2, antibacterial agent at 1/16 MIC): 1.06
Synergy Score (gram negative bacteria; with LpxCi-2, antibacterial agent at ¼ MIC): 0.58
Synergy Score (gram negative bacteria; with LpxCi-3, antibacterial agent at 1/16 MIC): 0.40
Synergy Score (gram negative bacteria; with LpxCi-3, antibacterial agent at 1/64 MIC): 1.02
Synergy Score (gram negative bacteria; with LpxCi-3, antibacterial agent at ¼ MIC): 0.29
FICI index (Pseudomonas aeruginosa): 0.31
FICI index (Yersinia enterocolitica): 0.09
FICI index (Klebsiella pneumoniae): 0.14

CC(C)(N)[C@H](NC(=O)c1ccc(C#CC#CC2CC2)cc1)C(=O)NO [LpxCi-4, (S)—N-(3-amino-1-(hydroxyamino)-3-methyl-1-oxobutan-2-yl)-4-(cyclopropylbuta-1,3-diynyl)benzamide]
in vivo synergy with rifampin (K. pneumo. (ATCC43816); bacterial strain ATCC43816): in vivo synergy
in vivo synergy with vancomycin (K. pneumo. (ATCC43816); bacterial strain ATCC43816): in vivo synergy
Static Dose, LpxC cmpd (K. pneumo. (ATCC43816); strain 43816, LpxC compound alone): 36 and 33
Fold Shift Static Dose (K. pneumo. (ATCC43816); [4]): 4x
Static Dose, LpxC in combination (K. pneumo. (ATCC43816); [4]): 9
Fold Shift Static Dose (K. pneumo. (ATCC43816); strain 43816, combination agent Vanco): 6.6x
Static Dose, LpxC in combination (K. pneumo. (ATCC43816); strain 43816, combination agent Vanco (440 mg/kg/day)): 5
shift in static dose (K. pneumo. (ATCC43816); with rifampin, K. pneumoniae ATCC43816): 4 fold
ΔLogCFU vs 24 hr [2, 5]: −1.57
Log CFU Mean [2, 5]: 6.17
ΔLogCFU vs 24 hr [2, 6]: −0.81
Log CFU Mean [2, 6]: 6.83
in vivo synergy with daptomycin ([2]; bacterial strain ATCC27853): does not exhibit in vivo synergy
in vivo synergy with rifampin ([2]; bacterial strain ATCC27853): in vivo synergy
in vivo synergy with vancomycin ([2]; bacterial strain ATCC27853): in vivo synergy
in vivo synergy with erythromycin ([2]; bacterial strain ATCC27853): modest in vivo synergy
in vivo synergy with erythromycin ([2]; bacterial strain ATCC27853, listed as LPxCi-4): only a very modest shift in the dose response curve
in vivo synergy with daptomycin ([2]; bacterial strain ATCC27853, listed as 3936): no measurable in vivo synergy
drop in CFU relative to vehicle ([2]; each agent at 30 mg/kg): 1.57 log
Static Dose, LpxC cmpd ([2]; strain 27853, LpxC compound alone): 60 and 42 and 50
Static Dose, LpxC in combination ([2]; strain 27853, combination agent Daptomycin): 50
Fold Shift Static Dose ([2]; strain 27853, combination agent Erythromycin): <1.5x
Static Dose, LpxC in combination ([2]; strain 27853, combination agent Erythromycin (60 mg/kg in text)): 40
Static Dose, LpxC in combination ([2]; strain 27853, combination agent Oxacillin): 50
Fold Shift Static Dose [2, 7]: 1.9x
Static Dose, LpxC in combination [2, 7]: 22
Fold Shift Static Dose [2, 8]: 2.4x
Static Dose, LpxC in combination [2, 8]: 25
shift in static dose ([2]; with rifampin, P. aeruginosa ATCC27853): 2 fold
MIC (envA+ (D21) E. coli): 0.015 µg/mL (≈ 0.0442 µM)
MIC (envA1 (D22) E. coli): ≦0.004
Fold decrease in MIC (envA+/envA1) (envA1 (D22) E. coli): ≧4
MIC (E. coli ATCC25922): 0.015 µg/mL (≈ 0.0442 µM)
AUC [3, 9]: 6870 ng·h/mL
Cmax [3, 9]: 2630 ng/mL
Tmax [3, 9]: 0.25 h
half-life [3, 9]: 3.27 h
AUC ([3]; LpxCi-4 (10 mg/kg) alone): 6030 ng·h/mL
Cmax ([3]; LpxCi-4 (10 mg/kg) alone): 2200 ng/mL
Tmax ([3]; LpxCi-4 (10 mg/kg) alone): 0.5 h
half-life ([3]; LpxCi-4 (10 mg/kg) alone): 2.63 h
PK / AUC of LpxCi-4 in the presence vs absence of vancomycin ([3]; vancomycin at 220 mg/kg, 220 mg/kg): not significantly affected; also recorded: essentially identical

CO[C@@H]1[C@@H](OC(N)=O)[C@@H](O)[C@H](Oc2ccc3c(O)c(NC(=O)c4ccc(O)c(CC=C(C)C)c4)c(=O)oc3c2C)OC1(C)C [Novobiocin, novobiocin]
FICI index (Escherichia coli): ≦0.25
FICI index (Pseudomonas aeruginosa): no effect
FICI index (Yersinia enterocolitica): ≦0.63
FICI index (Klebsiella pneumoniae): ≦0.38

CCCCCCCCCCNCCN[C@@]1(C)C[C@H](O[C@H]2[C@H](Oc3c4cc5cc3Oc3ccc(cc3Cl)[C@@H](O)[C@@H](NC(=O)[C@@H](CC(C)C)NC)C(=O)N[C@@H](CC(N)=O)C(=O)N[C@H]5C(=O)N[C@H]3C(=O)N[C@H](C(=O)N[C@H](C(=O)O)c5cc(O)c(CNCP(=O)(O)O)c(O)c5-c5cc3ccc5O)[C@H](O)c3ccc(c(Cl)c3)O4)O[C@H](CO)[C@@H](O)[C@@H]2O)O[C@@H](C)[C@H]1O [Telavancin, telavancin]
MIC (envA+ (D21) E. coli): > 128 µg/mL
FICI index (Escherichia coli): no
FICI index (Pseudomonas aeruginosa): no effect
FICI index (Yersinia enterocolitica): ≦0.5
FICI index (Klebsiella pneumoniae): ≦0.31
MIC (envA1 (D22) E. coli): 16 µg/mL (≈ 9.11 µM)
Fold decrease in MIC (envA+/envA1) (envA1 (D22) E. coli): ≧8
MIC (E. coli ATCC25922): > 128 µg/mL
